Assay results from patent publication US8389552B2, “(S)-6-(2-(4-(cyclobutylsulfonyl)-1H-imidazol-1-yl)-3-cyclopentylpropanamido)nicotinic acid useful as a glucokinase activator” (Pfizer Inc., priority 2009, dated 2013).

Biological target: T1, Full-length glucokinase (beta cell isoform) (Homo sapiens, UniProt P35557)
T1 construct: Full-length glucokinase (beta cell isoform) was His-tagged at N-terminus; His tag (N); made in house; host or cells: E. coli BL21(DE3), pBCGK vector
T1 sequence (P35557 1-465): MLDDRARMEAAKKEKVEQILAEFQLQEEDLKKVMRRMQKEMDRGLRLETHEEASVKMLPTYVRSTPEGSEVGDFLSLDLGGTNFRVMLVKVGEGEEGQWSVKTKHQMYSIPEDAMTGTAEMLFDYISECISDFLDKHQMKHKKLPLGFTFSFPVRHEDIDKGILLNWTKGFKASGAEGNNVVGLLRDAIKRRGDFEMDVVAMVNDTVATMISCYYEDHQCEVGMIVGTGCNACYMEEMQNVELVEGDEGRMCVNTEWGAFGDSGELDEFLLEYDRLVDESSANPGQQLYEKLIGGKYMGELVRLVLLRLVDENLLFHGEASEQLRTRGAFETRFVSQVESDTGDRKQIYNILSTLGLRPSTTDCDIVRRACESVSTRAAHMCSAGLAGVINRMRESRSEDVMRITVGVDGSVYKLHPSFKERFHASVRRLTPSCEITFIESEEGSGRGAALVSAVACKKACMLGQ
Experiment: Glucokinase activation assay (PK/LDH-coupled, NADH depletion at 340 nm)
Format: biochemical
Settings: 5 mM glucose, single value or range where N>1; for EC50: 2.5 mM ATP, pH 7.1, room temperature, read-out: EC50; for Emax: % max activation = (Va/Vo−1)×100 from fit, pH 7.1, read-out: Maximum Activation (%)
Summary of the method: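 His-tagged full-length beta-cell isoform enzyme; 50 mM HEPES pH 7.1 with 5 mM glucose, 2.5 mM ATP, 3.5 mM MgCl2, 0.7 mM NADH, 0.2 mM PEP, 25 mM KCl, 0.25% DMSO, room temperature. Compound premixed 7.5 min, reaction started with enzyme; initial velocity from 0-300 s slope. % maximum activation = (Va/Vo−1)×100, measured across compound concentrations.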

## Cc1ccc(NC(=O)[C@H](Cn2cccn2)n2cnc(C(F)(F)F)c2)nc1 [Example 83, (S)—N-(5-methylpyridin-2-yl)-3-(1H-pyrazol-1-yl)-2-(4-(trifluoromethyl)-1H-imidazol-1-yl)propenamide]
  EC50: > 100 µM

## O=C(Nc1cnccn1)[C@H](CC1CCCC1)n1cnc(C(F)(F)F)n1 [Example 84, (S)-3-cyclopentyl-N-(pyrazin-2-yl)-2-(3-(trifluoromethyl)-1H-1,2,4-triazol-1-yl)propanamide]
  EC50: 10 µM
  Emax: 171%

## Cc1ccc(NC(=O)[C@H](CC2CCCC2)n2cnc(C(F)(F)F)n2)nc1 [Example 85, (S)-3-cyclopentyl-N-(5-methylpyridin-2-yl)-2-(3-(trifluoromethyl)-1H-1,2,4-triazol-1-yl)propanamide]
  EC50: 0.8 to 1 µM
  Emax: 125 to 147%

## O=C(O)c1ccc(NC(=O)[C@H](CC2CCCC2)n2cnc(C(F)(F)F)n2)nc1 [Example 88, (S)-6-(3-cyclopentyl-2-(3-(trifluoromethyl)-1H-1,2,4-triazol-1-yl)propanamido)nicotinic acid]
  EC50: 0.7 µM
  Emax: 150%

## O=C(O)Cn1ccc(NC(=O)[C@H](CC2CCCC2)n2cnc(C(F)(F)F)n2)n1 [Example 89, (S)-2-(3-(3-cyclopentyl-2-(3-(trifluoromethyl)-1H-1,2,4-triazol-1-yl)propanamido)-1H-pyrazol-1-yl)acetic acid]
  EC50: 45 µM
  Emax: 183%

## O=C(O)c1ccc(NC(=O)[C@H](CC2CCCCC2)n2cnc(C(F)(F)F)c2)nc1 [Example 90, (S)-6-(3-cyclohexyl-2-(4-(trifluoromethyl)-1H-imidazol-1-yl)propanamido)nicotinic acid]
  EC50: 0.2 to 0.3 µM
  Emax: 120 to 138%

## Cc1ccc(NC(=O)[C@H](CC2CCCC2)n2cc(C(F)(F)F)nc2C)nc1 [Example 91, (S)-3-cyclopentyl-2-(2-methyl-4-(trifluoromethyl)-1H-imidazol-1-yl)-N-(5-methylpyridin-2-yl)propanamide]
  EC50: 0.4 µM
  Emax: 120%

## Cc1nc(C(F)(F)F)cn1[C@@H](CC1CCCC1)C(=O)Nc1ccc(C(=O)O)cn1 [Example 92, (S)-6-(3-cyclopentyl-2-(2-methyl-4-(trifluoromethyl)-1H-imidazol-1-yl)propanamido)nicotinic acid]
  EC50: 0.4 to 1.2 µM
  Emax: 158 to 168%

## Cc1ccc(NC(=O)[C@H](CC2CCCC2)n2cc(C)c(C(F)(F)F)n2)nc1 [Example 93, (S)-3-cyclopentyl-2-(4-methyl-3-(trifluoromethyl)-1H-pyrazol-1-yl)-N-(5-methylpyridin-2-yl)propanamide]
  EC50: 4 to 5.4 µM
  Emax: 92 to 95%

## Cc1cn([C@@H](CC2CCCC2)C(=O)Nc2ccc(C(=O)O)cn2)nc1C(F)(F)F [Example 95, (S)-6-(3-cyclopentyl-2-(4-methyl-3-(trifluoromethyl)-1H-pyrazol-1-yl)propanamido)nicotinic acid]
  EC50: 8 µM
  Emax: 128%

## Cc1ccc(NC(=O)[C@H](CC2CCCC2)n2cc(C(F)(F)F)c(C)n2)nc1 [Example 96, (S)-3-cyclopentyl-2-(3-methyl-4-(trifluoromethyl)-1H-pyrazol-1-yl)-N-(5-methylpyridin-2-yl)propanamide]
  EC50: 2.8 µM
  Emax: 123%

## Cc1ccc(NC(=O)[C@H](CC2CCCC2)n2ncc(C(F)(F)F)c2C)nc1 [Example 97, (S)-3-cyclopentyl-2-(5-methyl-4-(trifluoromethyl)-1H-pyrazol-1-yl)-N-(5-methylpyridin-2-yl)propanamide]
  EC50: 28 µM
  Emax: 136%
